Each structure is given as a SMILES string. “And” between values parts separate entries of the source, which are not always exact repeats. Equal values may be shown once. Inconclusive results and toxic doses are left out. Peptide text beside a SMILES is read from it.

The test system of the assay is P388 leukemia ip, CD2F1 mice, survival T/C. The experiment in a line: NCI In Vivo Anticancer Drug Screen. Data for tumor model P388 Leukemia (intraperitoneal) in CD2F1 (CDF1) mice. The following applies: endpoint: median survival time, higher = longer survival. An outline of the steps: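 Mice carrying the transplanted tumor received test compound or vehicle. Survival was recorded in each group, and the value is the treated-group measurement divided by that of the vehicle-treated control group.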

Setting [1] is: dose: 50.0 mg/kg/injection, schedule: Q01DX005 (ip), vehicle: Klucel (hydroxypropylcellulose) (HPC).
[2] abbreviates: dose: 100.0 mg/kg/injection, schedule: Q01DX005 (ip), vehicle: Klucel (hydroxypropylcellulose) (HPC).
[3] abbreviates: dose: 200.0 mg/kg/injection, schedule: Q01DX005 (ip), vehicle: Klucel (hydroxypropylcellulose) (HPC).
Where [4] appears, read: dose: 100.0 mg/kg/injection, schedule: Q01DX001 (ip), vehicle: Klucel (hydroxypropylcellulose) (HPC).
The mark [5] stands for this setting: dose: 200.0 mg/kg/injection, schedule: Q01DX001 (ip), vehicle: Klucel (hydroxypropylcellulose) (HPC).
Where [6] appears, read: dose: 400.0 mg/kg/injection, schedule: Q01DX001 (ip), vehicle: Klucel (hydroxypropylcellulose) (HPC).
The mark [7] stands for this setting: dose: 50.0 mg/kg/injection, schedule: Q01DX005 (ip), vehicle: saline with Tween-80.
Setting [8] is: dose: 100.0 mg/kg/injection, schedule: Q01DX005 (ip), vehicle: saline with Tween-80.
[9] abbreviates: dose: 200.0 mg/kg/injection, schedule: Q01DX005 (ip), vehicle: saline with Tween-80.
Setting [10] is: dose: 60.0 mg/kg/injection, schedule: Q01DX005 (ip), vehicle: Klucel (hydroxypropylcellulose) (HPC).
Where [11] appears, read: dose: 120.0 mg/kg/injection, schedule: Q01DX005 (ip), vehicle: Klucel (hydroxypropylcellulose) (HPC).
The mark [12] stands for this setting: dose: 100.0 mg/kg/injection, schedule: Q04DX003 (ip), vehicle: saline with Tween-80.
Where [13] appears, read: dose: 200.0 mg/kg/injection, schedule: Q04DX003 (ip), vehicle: saline with Tween-80.
Where [14] appears, read: dose: 400.0 mg/kg/injection, schedule: Q04DX003 (ip), vehicle: saline with Tween-80.
[15] abbreviates: dose: 60.0 mg/kg/injection, schedule: Q01DX005 (ip), vehicle: saline with Tween-80.
The mark [16] stands for this setting: dose: 120.0 mg/kg/injection, schedule: Q01DX005 (ip), vehicle: saline with Tween-80.

With `NNS(=O)(=O)c1ccc2ccccc2c1`, the T/C is 102 % of control (dose: 12.5 mg/kg/injection, schedule: Q01DX009 (ip), vehicle: other); 102 % of control and 86 % of control (dose: 25.0 mg/kg/injection, schedule: Q01DX009 (ip), vehicle: other); 86 % of control (dose: 50.0 mg/kg/injection, schedule: Q01DX009 (ip), vehicle: other); 102 % of control and 95 % of control (dose: 100.0 mg/kg/injection, schedule: Q01DX009 (ip), vehicle: other); 101 % of control and 95 % of control (dose: 200.0 mg/kg/injection, schedule: Q01DX009 (ip), vehicle: other).

In the case of `CC(=O)NC1C(=O)CC(c2ccccc2)N(C)C1c1ccccc1` (stereo not given), the T/C reads like this: under setting [1], 101 % of control; under setting [2], 97 % of control; under setting [3], 90 % of control.

In the case of `N#Cc1ccc(NN=O)nc1`, the T/C was 116 % of control and 123 % of control (dose: 3.13 mg/kg/injection, schedule: Q01DX009 (ip), vehicle: water); 159 % of control (dose: 6.25 mg/kg/injection, schedule: Q01DX009 (ip), vehicle: water); 151 % of control and 169 % of control (dose: 12.5 mg/kg/injection, schedule: Q01DX009 (ip), vehicle: water); 194 % of control and 268 % of control (dose: 25.0 mg/kg/injection, schedule: Q01DX009 (ip), vehicle: water).

`CCC(C)C(N)C(=O)N1CCCC1C(=O)O` (stereo not drawn) (H-Ile-Pro-OH; configuration not given here): the T/C is, setting by setting: (dose: 60.0 mg/kg/injection, schedule: Q01DX005 (ip), vehicle: saline) 98 % of control; (dose: 120.0 mg/kg/injection, schedule: Q01DX005 (ip), vehicle: saline) 98 % of control; (dose: 240.0 mg/kg/injection, schedule: Q01DX005 (ip), vehicle: saline) 102 % of control.

As for `c1ccc2c(C3CCCN4CCCCC34)c[nH]c2c1` (stereo not given), the T/C was 105 % of control (dose: 12.5 mg/kg/injection, schedule: Q04DX002 (ip), vehicle: saline with Tween-80); 102 % of control (dose: 25.0 mg/kg/injection, schedule: Q04DX002 (ip), vehicle: saline with Tween-80); 100 % of control (dose: 50.0 mg/kg/injection, schedule: Q04DX002 (ip), vehicle: saline with Tween-80).

Take `COc1cc(CC(=O)NCCc2ccsc2)c(CO)cc1OCc1ccccc1`: the T/C under setting [4] is 99 % of control, the T/C under setting [5] is 101 % of control and the T/C under setting [6] was 101 % of control.

As for `C=CC(C)(C)C1(O)Oc2cc(OC)ccc2C=C1c1ccccc1` (stereo not given), the T/C by setting is: under setting [4], 101 % of control; under setting [5], 101 % of control; under setting [6], 91 % of control.

As to `CN(C)c1ccc(/C=C2/CCC2=O)cc1`, the T/C runs as follows: (dose: 100.0 mg/kg/injection, schedule: Q04DX003 (ip), vehicle: Klucel (hydroxypropylcellulose) (HPC)) 96 % of control; (dose: 200.0 mg/kg/injection, schedule: Q04DX003 (ip), vehicle: Klucel (hydroxypropylcellulose) (HPC)) 97 % of control; (dose: 400.0 mg/kg/injection, schedule: Q04DX003 (ip), vehicle: Klucel (hydroxypropylcellulose) (HPC)) 95 % of control.

Regarding `COC(=O)Cc1cc(=O)[nH][nH]1`, the T/C runs as follows: (dose: 50.0 mg/kg/injection, schedule: Q01DX001 (ip), vehicle: suspension in saline) 93 % of control; (dose: 100.0 mg/kg/injection, schedule: Q01DX001 (ip), vehicle: suspension in saline) 95 % of control; (dose: 200.0 mg/kg/injection, schedule: Q01DX001 (ip), vehicle: suspension in saline) 86 % of control.

As for `[Cl][Sn]1([Cl])[CH2]CCCCCC[CH2][Sn]([Cl])([Cl])[CH2]CCCCCC[CH2]1`, the T/C runs as follows: under setting [7], 92 % of control; under setting [8], 92 % of control.

For `CN(O)C(=O)CN`, the T/C is 102 % of control under setting [7]; 102 % of control under setting [8]; 98 % of control under setting [9]; 100 % of control (dose: 400.0 mg/kg/injection, schedule: Q01DX005 (ip), vehicle: saline with Tween-80).

On to `COC(=O)C1=C(N)C(C#N)=C(C)C(C)(O)C1` (stereo not given), for which the T/C is, setting by setting: (dose: 50.0 mg/kg/injection, schedule: Q01DX009 (ip), vehicle: Klucel (hydroxypropylcellulose) (HPC)) 99 % of control; (dose: 100.0 mg/kg/injection, schedule: Q01DX009 (ip), vehicle: Klucel (hydroxypropylcellulose) (HPC)) 97 % of control; (dose: 200.0 mg/kg/injection, schedule: Q01DX009 (ip), vehicle: Klucel (hydroxypropylcellulose) (HPC)) 108 % of control.

Turning to `CCCCCCCCCC(=O)c1cc(O)c(C(=O)CCCCCCCCC)cc1O`, the T/C runs as follows: under setting [10], 103 % of control; under setting [11], 104 % of control; (dose: 240.0 mg/kg/injection, schedule: Q01DX005 (ip), vehicle: Klucel (hydroxypropylcellulose) (HPC)) 105 % of control.

For `CN(C)c1ccc(/C=C/C=C2C(=O)NC(=S)NC2=O)cc1`, the T/C by setting is: (dose: 100.0 mg/kg/injection, schedule: Q04DX002 (ip), vehicle: Klucel (hydroxypropylcellulose) (HPC)) 89 % of control; (dose: 200.0 mg/kg/injection, schedule: Q04DX002 (ip), vehicle: Klucel (hydroxypropylcellulose) (HPC)) 92 % of control; (dose: 400.0 mg/kg/injection, schedule: Q04DX002 (ip), vehicle: Klucel (hydroxypropylcellulose) (HPC)) 87 % of control.

Take `[N-]=[N+]=NP1(=O)OC(c2ccccc2)=CCN1c1ccccc1` (stereo not given): the T/C under setting [1] was 105 % of control, the T/C under setting [2] was 103 % of control and the T/C under setting [3] was 100 % of control.

Turning to `CC(=O)C1CCC2=C(C1)C(=O)c1cc3c(-c4ccccc4)oc(-c4ccccc4)c3cc1C2=O` (stereo not given), the T/C reads like this: (dose: 7.5 mg/kg/injection, schedule: Q01DX005 (ip), vehicle: Klucel (hydroxypropylcellulose) (HPC)) 87 % of control; (dose: 15.0 mg/kg/injection, schedule: Q01DX005 (ip), vehicle: Klucel (hydroxypropylcellulose) (HPC)) 94 % of control.

Consider `O=C1c2ccccc2CC1(Br)C(Br)c1ccccc1` (stereo not given), for which the T/C (dose: 100.0 mg/kg/injection, schedule: Q01DX009 (ip), vehicle: saline with Tween-80) was 109 % of control; the T/C under setting [12] is 96 % of control; the T/C (dose: 200.0 mg/kg/injection, schedule: Q01DX009 (ip), vehicle: saline with Tween-80) is 118 % of control; the T/C under setting [13] was 92 % of control; the T/C (dose: 400.0 mg/kg/injection, schedule: Q01DX009 (ip), vehicle: saline with Tween-80) is 109 % of control; the T/C under setting [14] was 92 % of control.

Turning to `Cc1cc(C(=O)O)nn1-c1ccc(S(=O)(=O)N2CCC(=O)N(C3CCCCC3)C2=S)cc1`, the T/C under setting [7] was 95 % of control, the T/C under setting [8] was 101 % of control and the T/C under setting [9] was 101 % of control.

Regarding `CC(=O)C(C)C(C)=NCCN=C(C)C(C)C(C)=O` (stereo not given), the T/C is 110 % of control under setting [1], 110 % of control under setting [2] and 103 % of control under setting [3].

On to `CCCCc1c(C#N)c(=O)n2c(N)c(C#N)cnc2c1SC`, for which the T/C was 93 % of control under setting [15]; 93 % of control under setting [16]; 87 % of control (dose: 240.0 mg/kg/injection, schedule: Q01DX005 (ip), vehicle: saline with Tween-80).

Turning to `CC1(C)SC(C)(c2ccco2)N(c2nccs2)C1=O` (stereo not given), the T/C is 104 % of control under setting [10] and 104 % of control under setting [11].

For `Cc1cc(O)c(C(C)C)cc1S(=O)(=O)O` (tested in a mixture with another compound), the T/C under setting [12] was 100 % of control; the T/C under setting [13] is 95 % of control and 108 % of control; the T/C under setting [14] was 108 % of control.

Regarding `O=C(O)/C(Cl)=C(\Cl)C(=O)Nc1c(Cl)cccc1Cl`, the T/C runs as follows: under setting [15], 101 % of control; under setting [16], 100 % of control.

Take `COc1ccc(C(=O)NCCN2CCN3Cc4[nH]c5ccccc5c4CC3C2)cc1` (stereo not given): the T/C runs as follows: (dose: 25.0 mg/kg/injection, schedule: Q01DX001 (ip), vehicle: saline with Tween-80) 95 % of control; (dose: 50.0 mg/kg/injection, schedule: Q01DX001 (ip), vehicle: saline with Tween-80) 97 % of control; (dose: 100.0 mg/kg/injection, schedule: Q01DX001 (ip), vehicle: saline with Tween-80) 95 % of control and 98 % of control.
